Data taken from patent US6451356B1, “Antibacterial composition comprising oenostacin from oenothera biennis” (Council of Scientific and Industrial Research, priority 2000, dated 2002).
Converted amounts (≈) assume the structure as drawn. Read-outs that look alike come from different tables or passages of the source.

Key:
Assay type in all cases: cell-based
Streptococcus mutans = assay: MIC by two-fold broth dilution, S. mutans
Protocol: (§1) In order to identify the antibacterial chemical entities present in the EtOAc fraction 3 and 4 of O.biennis roots, the fractions are further run on silica gel column chromatography again eluting with varying proportions of chloroform and MeOH. Aliquots of eluate are run on TLC to check for the desired purity of the compound. The pure compounds thus obtained are analyzed for their antibacterial properties by two-fold broth dilution method to determine the minimal inhibitory concentration (MIC). […] The compounds CIM791 and 790 are identified as 3,5-dihydroxy-4-pent-4′-enoyl-1′-oxymethylbenzoic acid (Oenostacin) and gallic acid, respectively, using NMR spectral data.

Pseudomonas aeruginosa = assay: MIC by two-fold broth dilution, P. aeruginosa; conditions: Table 5, read-out: Minimal inhibitory concentration (MIC) P. aeruginosa
Protocol: as §1

[1] = test system: Staphylococcus epidermidis; assay: MIC by two-fold broth dilution, S. epidermidis; parameters: Minimal inhibitory concentration (MIC) S. epidermidis: unit not given here
Protocol: CIM 791 is tested for its minimal inhibitory concentration, which is a measure of the growth inhibitory potential of the compound and determined against S. epidermidis by two-fold broth dilution technique.
as §1

| MIC (Streptococcus mutans; read-out: MIC against Streptococcus mutans) [µg/mL] | MIC (Pseudomonas aeruginosa) [µg/mL] | MIC ([1]; Staphylococcus epidermidis, read-out: MIC against Staphylococcus epidermidis) [µg/mL] | Minimal inhibitory concentration (MIC) S. epidermidis ([1]; Table 5) | MIC (Streptococcus mutans; Table 5, read-out: Minimal inhibitory concentration (MIC) S. mutans) [µg/mL] | SMILES | activity against Staphylococcus epidermidis (in words) [1] |
| --- | --- | --- | --- | --- | --- | --- |
| 625 (≈ 3.67 mM) | 1250 (≈ 7.35 mM) | – | – | – | O=C(O)c1cc(O)c(O)c(O)c1 [Gallic acid, gallic acid] | – |
| – | – | 31.5 (≈ 0.118 mM) | 31.5 | 1250 (≈ 4.69 mM) | COC(=O)CC/C=C/c1c(O)cc(C(=O)O)cc1O [Oenostacin, 3,5-dihydroxy-4-pent-4′-enoyl-1′-oxymethylbenzoic acid] | strong activity |
